Patent US9675606B2, “2-amino-3-(imidazol-2-yl)-pyridin-4-one derivatives and their use as VEGF receptor kinase inhibitors” (SANOFI, priority 2011, dated 2017)

Tests used:
VEGFR-3 [1] = biological target: T1, VEGFR-3 (Homo sapiens, UniProt P35916); assay: Effect of compounds on VEGFR-3 auto-phosphorylation in HEK cells (ELISA); assay type: cell-based; settings: autophosphorylation of VEGFR-3-Flag overexpressed in HEK293T cells, 1 h incubation with compound
T1 construct: expressed in transfected cells; host or cells: HEK293T cells, transient transfection with Fugene-6
T1 sequence (P35916 25-1363, species assumed): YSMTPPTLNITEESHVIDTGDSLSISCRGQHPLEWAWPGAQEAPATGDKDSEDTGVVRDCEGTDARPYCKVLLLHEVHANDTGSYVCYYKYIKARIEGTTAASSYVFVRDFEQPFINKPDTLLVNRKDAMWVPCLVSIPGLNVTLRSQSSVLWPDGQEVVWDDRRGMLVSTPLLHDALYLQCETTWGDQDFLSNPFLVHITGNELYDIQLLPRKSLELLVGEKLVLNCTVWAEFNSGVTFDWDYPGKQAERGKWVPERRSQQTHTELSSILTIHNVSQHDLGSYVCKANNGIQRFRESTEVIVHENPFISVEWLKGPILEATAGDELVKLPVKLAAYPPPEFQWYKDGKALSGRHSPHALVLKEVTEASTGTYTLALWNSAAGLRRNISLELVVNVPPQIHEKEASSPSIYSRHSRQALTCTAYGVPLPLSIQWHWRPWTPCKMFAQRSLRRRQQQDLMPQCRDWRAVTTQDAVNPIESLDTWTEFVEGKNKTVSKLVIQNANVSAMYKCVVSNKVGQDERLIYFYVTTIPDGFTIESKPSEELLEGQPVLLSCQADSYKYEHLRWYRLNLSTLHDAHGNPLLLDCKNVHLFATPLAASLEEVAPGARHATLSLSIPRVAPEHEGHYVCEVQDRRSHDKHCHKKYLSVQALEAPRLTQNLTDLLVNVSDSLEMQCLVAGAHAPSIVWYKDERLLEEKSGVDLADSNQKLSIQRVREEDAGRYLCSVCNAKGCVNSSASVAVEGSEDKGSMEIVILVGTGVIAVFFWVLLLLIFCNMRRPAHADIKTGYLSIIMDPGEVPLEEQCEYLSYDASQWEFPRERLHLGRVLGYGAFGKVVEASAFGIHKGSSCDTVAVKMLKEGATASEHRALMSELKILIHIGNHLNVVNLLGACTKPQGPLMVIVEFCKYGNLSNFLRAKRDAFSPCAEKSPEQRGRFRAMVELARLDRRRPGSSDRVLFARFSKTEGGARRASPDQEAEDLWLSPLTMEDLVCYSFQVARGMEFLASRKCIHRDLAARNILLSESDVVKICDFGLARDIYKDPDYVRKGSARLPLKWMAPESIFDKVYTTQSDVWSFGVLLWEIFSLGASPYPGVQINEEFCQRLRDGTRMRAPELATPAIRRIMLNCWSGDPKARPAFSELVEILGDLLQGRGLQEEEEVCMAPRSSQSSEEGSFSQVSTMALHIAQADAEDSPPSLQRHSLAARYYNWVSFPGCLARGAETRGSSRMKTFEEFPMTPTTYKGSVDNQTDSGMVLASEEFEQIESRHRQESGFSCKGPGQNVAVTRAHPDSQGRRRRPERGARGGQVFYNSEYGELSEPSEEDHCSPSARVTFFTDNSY
Experimental: Effect of Compounds on VEGFR-3 Auto-Phosphorylation in HEK Cells
The effects of compounds in blocking VEGFR-3 autophosphorylation were quatified by ELISA after Overexpression of VEGFR-3 in HEK cells. HEK293T cells were maintained in MEM supplemented with 10% foetal calf serum (FCS) and glutamine. The day before transfection, […] were seeded on 48 wells plates and transfection was done using Fugene-6 (Roche, Basel). Fugene-6 (18 μL) was preincubated for 5 min with 282 μl of optimem. Then 3 μg DNA corresponding VFGR-3-Flag was added and left at room temperature during 10 min before distributing 200 μl on HEK cells. After 24 h, the medium was removed and replaced by a new one without serum and incubated for 1 h with different concentrations (ranging from 3 to 1000 nM) of each compound. After additional 30 min incubation with Orthovanadate (0.4 mM), cells were washed with cold PBS supplemented by orthovanadate and then lysed with 300 μl of RIPA buffer. Lysates were then centrifuged during 10 min at 10000 g. Supernatants (75 μl) were distributed in duplicate on 96 well plate precoated with the anti-Flag and left during 1 hour at room temperature. After 3 washes with TBS buffer containing 0.5% tween 20, the anti-phospho-tyrosine conjugated to the HRP was added and incubated for 1 hour at room temperature. Wells were then washed 3 times with TBS buffer containing tween 20 (0.5%) and MgCl2 (2 mM). The reaction was stopped with 50 μl of H2SO4 (2 N) and the signal was read at Envision at 485 and 530.
The concentration-response curves were analyzed with internal software Biost@t-SPEED v2.0 using the 4-parameter logistic model according to Ratkovsky and Reedy (Ratkovsky D A., Reedy T J. Choosing near-linear parameters in the four parameters logistic model radioligands and related assays. Biometrics 1986 September 42(3):575-82.)

VEGFR-3 [2] = biological target: T1, VEGFR-3; assay: Ex vivo assay: VEGFR-3 autophosphorylation in HEK cells incubated with plasma of mice dosed p.o.; design: species or system male Balb/c mice; settings: HEK293, mouse; 6 h after single oral administration of 30 mg/kg to male Balb/c mice; transfected HEK cells incubated with plasma (10%); read-out: Ex vivo inhibition (%) At the time
Experimental: Protocol for administration of the products to the mice:
The products are prepared in a mortar with 0.5% Tween 80 and 0.6% methylcellulose qs final volume. The suspensions are administered by gavage (10 ml/kg) to male Balb/c mice 8 to 15 weeks old. Three hours or 6 hours after single oral administrations of 30 mg/kg, animals were anaesthetized with pentobarbital and blood samples (400 μL) were collected from cava vein and transferred into glass tubes containing lithium heparin. After centrifugation (1500-2000 g for 10 minutes), plasma samples were frozen at a temperature close to −20° C. until analysis.
In order to detect the ex vivo activity of the products in the plasmas, we have used the autophosphorylation assay in HEK cells described earlier. For this purpose, transfected cells were incubated with plasma (10%) instead of compounds. Results are expressed as percent of inhibition of VEGFR-3 autophosphorylation in comparison to untreated cells (maximum autophosphorylation) and to untransfected cells (background).
Results are expressed as a percentage of inhibition of VEGFR-3 auto-phosphorylation of in HEK cells, in presence of a plasma sample collected (at a time), after per os (p.o.) administration of compounds. In order to evaluate the increase of this activity for compounds of the invention, a comparison with compounds of the prior art (WO 2009/007535) and subjected to the same measurement is made in table 3.

IC50 (VEGFR-3 [1]) | inhibition at 30 mg/kg (VEGFR-3 [2]) | Compound
45 nM | 86% | CCn1c(N)c(-c2nc(C)c[nH]2)c(=O)c2ccc(C#C[C@@](C)(O)COC)nc21 [Compound 5, 2-Amino-1-ethyl-7-[(3R)-3-hydroxy-4-methoxy-3-methylbut-1-yn-1-yl]-3-(4-methyl-1H-imidazol-2-yl)-1,8-naphthyridin-4(1H)-one]
41 nM | 23% | CCn1c(N)c(-c2ncc[nH]2)c(=O)c2ccc(C#CC3(O)CCC3)nc21 [Compound 13, 2-Amino-1-ethyl-7-[(1-hydroxycyclobutyl)ethynyl]-3-(1H-imidazol-2-yl)-1,8-naphthyridin-4(1H)-one]
